Results published in ChEMBL document CHEMBL5696441 (Nat Chem Biol, 2011).

Key:
[1] = biological target: Mitogen-activated protein kinase 13 (Homo sapiens) (UniProt O15264); assay: Inhibition of P38delta (unknown origin) assessed as remaining activity at 1 uM by Kinome scan method relative to control
[2] = tested on: Epidermal growth factor receptor (Homo sapiens), P00533 [G719C]; assay: Inhibition of human EGFR G719C mutant assessed as residual activity at 1 uM using PolyEY as substrate in presence of 33P-ATP by ProQinase assay relative to control
[3] = biological target: Death-associated protein kinase 3 (Homo sapiens) (UniProt O43293); assay: Inhibition of human DAPK3 assessed as residual activity at 1 uM using RBER-GSK3 as substrate in presence of 33P-ATP by ProQinase assay relative to control
[4] = biological target: Tyrosine-protein kinase JAK1 (Homo sapiens) (UniProt P23458); assay: Inhibition of JAK1 JH1 domain (unknown origin) assessed as remaining activity at 1 uM by Kinome scan method relative to control
[5] = biological target: Cyclin-dependent kinase 7 (Homo sapiens) (UniProt P50613); assay: Inhibition of CDK7 (unknown origin) assessed as remaining activity at 1 uM by Kinome scan method relative to control
[6] = biological target: High affinity nerve growth factor receptor (Homo sapiens) (UniProt P04629); assay: Inhibition of human TRKA assessed as residual activity at 1 uM using PolyEY as substrate in presence of 33P-ATP by ProQinase assay relative to control
High affinity nerve growth factor receptor (Homo sapiens), sequence (P04629 33-796 limits assumed): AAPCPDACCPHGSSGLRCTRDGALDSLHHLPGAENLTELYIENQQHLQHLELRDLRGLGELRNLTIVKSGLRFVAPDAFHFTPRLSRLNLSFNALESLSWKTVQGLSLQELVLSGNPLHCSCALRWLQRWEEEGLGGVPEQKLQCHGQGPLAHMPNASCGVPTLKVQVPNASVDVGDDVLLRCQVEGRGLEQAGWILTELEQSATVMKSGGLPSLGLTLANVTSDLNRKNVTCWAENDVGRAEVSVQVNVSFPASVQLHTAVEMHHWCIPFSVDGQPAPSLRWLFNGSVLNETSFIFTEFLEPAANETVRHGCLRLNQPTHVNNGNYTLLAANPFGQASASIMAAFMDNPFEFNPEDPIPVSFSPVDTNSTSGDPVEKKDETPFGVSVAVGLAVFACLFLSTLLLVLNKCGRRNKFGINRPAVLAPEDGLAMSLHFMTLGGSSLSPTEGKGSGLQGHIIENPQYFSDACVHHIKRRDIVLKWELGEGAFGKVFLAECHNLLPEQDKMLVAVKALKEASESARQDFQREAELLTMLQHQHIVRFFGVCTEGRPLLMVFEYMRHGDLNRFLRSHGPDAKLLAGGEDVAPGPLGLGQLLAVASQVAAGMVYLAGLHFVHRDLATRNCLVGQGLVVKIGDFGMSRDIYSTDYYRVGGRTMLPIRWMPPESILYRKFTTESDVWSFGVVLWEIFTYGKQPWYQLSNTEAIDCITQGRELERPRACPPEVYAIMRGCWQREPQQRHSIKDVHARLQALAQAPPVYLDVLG

[7] = biological target: Tyrosine-protein kinase Srms (Homo sapiens) (UniProt Q9H3Y6); assay: Inhibition of SRMS (unknown origin) assessed as remaining activity at 1 uM by Kinome scan method relative to control
Tyrosine-protein kinase Srms (Homo sapiens), sequence (Q9H3Y6 whole entry): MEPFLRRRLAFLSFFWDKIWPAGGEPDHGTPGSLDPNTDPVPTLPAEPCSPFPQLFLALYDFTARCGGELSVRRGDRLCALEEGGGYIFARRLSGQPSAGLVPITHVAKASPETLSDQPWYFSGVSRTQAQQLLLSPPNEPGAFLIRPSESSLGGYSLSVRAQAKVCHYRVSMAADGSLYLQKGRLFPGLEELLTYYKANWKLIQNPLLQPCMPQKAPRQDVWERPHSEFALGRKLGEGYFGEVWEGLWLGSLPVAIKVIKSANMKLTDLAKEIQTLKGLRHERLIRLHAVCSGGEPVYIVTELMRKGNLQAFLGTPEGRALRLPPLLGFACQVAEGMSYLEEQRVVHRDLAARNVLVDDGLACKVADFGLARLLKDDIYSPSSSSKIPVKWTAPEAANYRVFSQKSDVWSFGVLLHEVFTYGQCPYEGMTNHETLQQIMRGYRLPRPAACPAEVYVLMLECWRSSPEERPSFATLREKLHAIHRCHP

[8] = biological target: Activin receptor type-2B (Homo sapiens) (UniProt Q13705); assay: Inhibition of ACVR2B (unknown origin) assessed as remaining activity at 1 uM by Kinome scan method relative to control
[9] = biological target: Calcium/calmodulin-dependent protein kinase kinase 2 (Homo sapiens) (UniProt Q96RR4); assay: Inhibition of CAMKK2 (unknown origin) assessed as remaining activity at 1 uM by Kinome scan method relative to control
[10] = biological target: T1, Aurora kinase C (Homo sapiens) (UniProt Q9UQB9); assay: Inhibition of human AuroraC assessed as residual activity at 1 uM using bio-4xCHKT as substrate in presence of 33P-ATP by ProQinase assay relative to control
T1 sequence (whole entry): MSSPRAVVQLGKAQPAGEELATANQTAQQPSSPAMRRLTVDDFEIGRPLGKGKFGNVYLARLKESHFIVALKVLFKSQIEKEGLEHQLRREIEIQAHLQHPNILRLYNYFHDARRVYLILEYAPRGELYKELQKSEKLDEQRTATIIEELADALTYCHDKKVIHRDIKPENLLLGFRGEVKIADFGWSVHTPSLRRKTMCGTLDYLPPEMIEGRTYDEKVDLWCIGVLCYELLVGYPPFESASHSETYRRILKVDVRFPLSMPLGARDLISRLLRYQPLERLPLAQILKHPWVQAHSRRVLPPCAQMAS

[11] = biological target: Ribosomal protein S6 kinase alpha-3 (Homo sapiens) (UniProt P51812); assay: Inhibition of human RPS6KA3 assessed as residual activity at 1 uM using bio-4xCHKT as substrate in presence of 33P-ATP by ProQinase assay relative to control
Ribosomal protein S6 kinase alpha-3 (Homo sapiens), sequence (P51812 whole entry): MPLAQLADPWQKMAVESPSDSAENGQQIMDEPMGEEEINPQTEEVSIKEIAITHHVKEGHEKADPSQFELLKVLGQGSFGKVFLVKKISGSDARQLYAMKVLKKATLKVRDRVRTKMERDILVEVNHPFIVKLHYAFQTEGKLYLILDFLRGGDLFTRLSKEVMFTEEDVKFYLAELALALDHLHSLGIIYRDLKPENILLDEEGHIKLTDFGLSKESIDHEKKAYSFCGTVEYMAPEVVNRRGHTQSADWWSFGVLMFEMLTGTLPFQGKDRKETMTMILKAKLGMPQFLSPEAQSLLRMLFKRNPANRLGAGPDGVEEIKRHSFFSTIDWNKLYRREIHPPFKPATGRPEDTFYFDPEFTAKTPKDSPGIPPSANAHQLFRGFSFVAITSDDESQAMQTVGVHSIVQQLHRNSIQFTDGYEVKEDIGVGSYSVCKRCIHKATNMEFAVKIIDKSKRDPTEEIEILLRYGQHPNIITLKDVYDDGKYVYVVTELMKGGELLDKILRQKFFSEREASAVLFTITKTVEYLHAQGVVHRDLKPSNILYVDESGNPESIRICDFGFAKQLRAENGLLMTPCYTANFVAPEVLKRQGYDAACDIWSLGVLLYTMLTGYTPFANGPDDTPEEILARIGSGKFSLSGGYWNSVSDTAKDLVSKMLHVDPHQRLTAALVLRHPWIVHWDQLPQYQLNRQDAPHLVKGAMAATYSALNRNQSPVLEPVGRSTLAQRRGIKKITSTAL

[12] = biological target: T2, Serine/threonine-protein kinase TAO3 (Homo sapiens) (UniProt Q9H2K8); assay: Inhibition of human TAOK3 assessed as residual activity at 1 uM using 3xChocktide-PKC(19-31) as substrate in presence of 33P-ATP by ProQinase assay relative to control
T2 sequence (whole entry): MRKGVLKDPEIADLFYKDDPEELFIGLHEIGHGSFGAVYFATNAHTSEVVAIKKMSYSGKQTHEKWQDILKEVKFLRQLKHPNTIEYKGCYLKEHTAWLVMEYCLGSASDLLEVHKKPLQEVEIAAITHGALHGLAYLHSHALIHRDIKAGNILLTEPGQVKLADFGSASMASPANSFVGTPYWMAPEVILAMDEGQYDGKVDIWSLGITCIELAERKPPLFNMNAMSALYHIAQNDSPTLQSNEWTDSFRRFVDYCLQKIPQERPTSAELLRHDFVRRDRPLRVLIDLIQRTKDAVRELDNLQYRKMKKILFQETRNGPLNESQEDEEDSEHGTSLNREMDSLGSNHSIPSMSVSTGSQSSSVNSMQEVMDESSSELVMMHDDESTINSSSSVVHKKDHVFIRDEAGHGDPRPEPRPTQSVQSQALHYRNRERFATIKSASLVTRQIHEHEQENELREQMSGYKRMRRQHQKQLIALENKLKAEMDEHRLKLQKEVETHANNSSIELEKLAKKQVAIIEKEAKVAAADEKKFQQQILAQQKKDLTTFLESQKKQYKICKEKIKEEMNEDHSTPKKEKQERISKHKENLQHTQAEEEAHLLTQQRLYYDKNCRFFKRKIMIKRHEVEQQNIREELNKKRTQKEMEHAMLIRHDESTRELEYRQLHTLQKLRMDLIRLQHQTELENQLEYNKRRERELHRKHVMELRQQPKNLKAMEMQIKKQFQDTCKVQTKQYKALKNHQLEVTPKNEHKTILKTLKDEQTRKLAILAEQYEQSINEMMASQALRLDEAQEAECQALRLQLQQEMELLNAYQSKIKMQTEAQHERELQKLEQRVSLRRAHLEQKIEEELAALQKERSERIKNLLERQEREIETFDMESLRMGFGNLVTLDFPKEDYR

[13] = biological target: Serine/threonine-protein kinase N1 (Homo sapiens) (UniProt Q16512); assay: Inhibition of human PRK1 assessed as residual activity at 1 uM using RBER-CHKtide as substrate in presence of 33P-ATP by ProQinase assay relative to control
[14] = biological target: Tyrosine-protein kinase Fer (Homo sapiens) (UniProt P16591); assay: Inhibition of FER (unknown origin) assessed as remaining activity at 1 uM by Kinome scan method relative to control
Tyrosine-protein kinase Fer (Homo sapiens), sequence (P16591 whole entry, looked up): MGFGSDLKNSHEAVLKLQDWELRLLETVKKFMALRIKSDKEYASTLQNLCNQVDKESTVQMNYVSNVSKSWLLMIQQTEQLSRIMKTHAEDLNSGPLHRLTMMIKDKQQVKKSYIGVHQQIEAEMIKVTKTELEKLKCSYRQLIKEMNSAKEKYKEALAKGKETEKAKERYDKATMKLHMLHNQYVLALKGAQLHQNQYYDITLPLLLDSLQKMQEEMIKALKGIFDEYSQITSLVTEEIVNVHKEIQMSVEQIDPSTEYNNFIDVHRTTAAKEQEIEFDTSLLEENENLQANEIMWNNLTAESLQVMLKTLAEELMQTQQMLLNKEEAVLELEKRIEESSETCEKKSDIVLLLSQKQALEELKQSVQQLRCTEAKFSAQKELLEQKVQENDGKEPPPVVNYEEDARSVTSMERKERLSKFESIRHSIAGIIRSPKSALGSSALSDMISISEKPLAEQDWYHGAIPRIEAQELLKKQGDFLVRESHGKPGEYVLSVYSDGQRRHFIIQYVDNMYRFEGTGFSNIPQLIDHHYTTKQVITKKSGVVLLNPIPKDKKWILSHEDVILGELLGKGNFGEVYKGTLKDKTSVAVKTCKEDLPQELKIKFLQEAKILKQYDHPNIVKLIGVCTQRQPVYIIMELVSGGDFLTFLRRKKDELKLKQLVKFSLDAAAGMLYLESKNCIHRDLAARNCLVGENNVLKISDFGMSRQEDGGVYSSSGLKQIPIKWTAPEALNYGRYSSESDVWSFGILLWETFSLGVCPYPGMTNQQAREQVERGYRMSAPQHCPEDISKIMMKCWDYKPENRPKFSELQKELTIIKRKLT

[15] = biological target: Tyrosine-protein kinase FRK (Homo sapiens) (UniProt P42685); assay: Inhibition of FRK (unknown origin) assessed as remaining activity at 1 uM by Kinome scan method relative to control
[16] = biological target: Mitogen-activated protein kinase 10 (Homo sapiens) (UniProt P53779); assay: Inhibition of human JNK3 assessed as residual activity at 1 uM using ATF2 as substrate in presence of 33P-ATP by ProQinase assay relative to control
Mitogen-activated protein kinase 10 (Homo sapiens), sequence (P53779 whole entry): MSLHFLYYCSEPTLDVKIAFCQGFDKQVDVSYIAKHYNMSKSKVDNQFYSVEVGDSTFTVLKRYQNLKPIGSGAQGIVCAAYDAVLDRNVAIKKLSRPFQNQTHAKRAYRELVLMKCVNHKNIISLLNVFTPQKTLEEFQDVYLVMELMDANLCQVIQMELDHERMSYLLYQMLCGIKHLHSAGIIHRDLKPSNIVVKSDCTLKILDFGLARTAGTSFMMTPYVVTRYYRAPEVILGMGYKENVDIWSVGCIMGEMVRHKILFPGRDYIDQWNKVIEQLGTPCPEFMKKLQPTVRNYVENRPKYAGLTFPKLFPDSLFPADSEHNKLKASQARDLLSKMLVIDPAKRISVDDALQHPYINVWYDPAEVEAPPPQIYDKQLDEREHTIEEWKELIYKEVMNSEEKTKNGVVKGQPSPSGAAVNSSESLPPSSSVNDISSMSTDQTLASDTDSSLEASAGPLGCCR

[17] = biological target: Receptor tyrosine-protein kinase erbB-4 (Homo sapiens) (UniProt Q15303); assay: Inhibition of ERBB4 (unknown origin) assessed as remaining activity at 1 uM by Kinome scan method relative to control
Receptor tyrosine-protein kinase erbB-4 (Homo sapiens), sequence (Q15303 whole entry): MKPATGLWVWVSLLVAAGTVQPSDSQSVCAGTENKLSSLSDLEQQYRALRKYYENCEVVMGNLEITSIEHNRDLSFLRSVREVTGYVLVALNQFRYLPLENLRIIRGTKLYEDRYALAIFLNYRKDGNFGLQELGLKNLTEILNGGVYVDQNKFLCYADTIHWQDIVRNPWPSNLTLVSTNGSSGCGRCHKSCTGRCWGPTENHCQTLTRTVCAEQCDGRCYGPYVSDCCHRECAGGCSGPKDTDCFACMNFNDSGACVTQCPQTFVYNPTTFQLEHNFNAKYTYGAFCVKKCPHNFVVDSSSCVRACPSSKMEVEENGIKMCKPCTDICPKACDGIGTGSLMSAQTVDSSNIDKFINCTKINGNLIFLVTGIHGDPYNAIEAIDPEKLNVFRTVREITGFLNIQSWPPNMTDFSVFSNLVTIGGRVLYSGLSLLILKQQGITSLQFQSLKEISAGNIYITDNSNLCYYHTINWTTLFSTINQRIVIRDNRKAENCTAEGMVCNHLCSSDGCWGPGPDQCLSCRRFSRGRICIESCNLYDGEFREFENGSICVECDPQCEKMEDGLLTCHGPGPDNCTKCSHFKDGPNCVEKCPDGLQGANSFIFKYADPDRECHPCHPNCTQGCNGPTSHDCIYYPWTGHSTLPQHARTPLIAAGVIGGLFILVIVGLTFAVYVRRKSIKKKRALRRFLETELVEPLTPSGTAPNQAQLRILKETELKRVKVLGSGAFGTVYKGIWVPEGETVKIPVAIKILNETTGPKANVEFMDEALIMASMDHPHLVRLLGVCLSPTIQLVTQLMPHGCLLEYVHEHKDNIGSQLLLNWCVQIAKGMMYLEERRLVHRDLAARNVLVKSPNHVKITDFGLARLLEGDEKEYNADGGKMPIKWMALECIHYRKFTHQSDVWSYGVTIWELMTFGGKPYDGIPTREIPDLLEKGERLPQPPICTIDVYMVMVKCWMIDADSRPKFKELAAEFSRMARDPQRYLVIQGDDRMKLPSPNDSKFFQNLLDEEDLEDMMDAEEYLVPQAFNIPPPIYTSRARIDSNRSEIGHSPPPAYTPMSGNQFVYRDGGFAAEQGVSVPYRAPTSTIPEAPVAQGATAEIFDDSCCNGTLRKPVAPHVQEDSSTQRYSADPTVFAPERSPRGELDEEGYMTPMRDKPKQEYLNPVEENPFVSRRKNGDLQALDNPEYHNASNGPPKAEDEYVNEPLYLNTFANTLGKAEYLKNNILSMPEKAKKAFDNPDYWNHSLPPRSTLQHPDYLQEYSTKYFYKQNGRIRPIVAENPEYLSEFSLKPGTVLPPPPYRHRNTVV

[18] = tested on: Epidermal growth factor receptor (Homo sapiens), P00533 [UNDEFINED MUTATION]; assay: Inhibition of human EGFR d746-750 mutant assessed as residual activity at 1 uM using PolyEY as substrate in presence of 33P-ATP by ProQinase assay relative to control

Mitogen-activated protein kinase 13 (Homo sapiens), sequence (O15264 whole entry): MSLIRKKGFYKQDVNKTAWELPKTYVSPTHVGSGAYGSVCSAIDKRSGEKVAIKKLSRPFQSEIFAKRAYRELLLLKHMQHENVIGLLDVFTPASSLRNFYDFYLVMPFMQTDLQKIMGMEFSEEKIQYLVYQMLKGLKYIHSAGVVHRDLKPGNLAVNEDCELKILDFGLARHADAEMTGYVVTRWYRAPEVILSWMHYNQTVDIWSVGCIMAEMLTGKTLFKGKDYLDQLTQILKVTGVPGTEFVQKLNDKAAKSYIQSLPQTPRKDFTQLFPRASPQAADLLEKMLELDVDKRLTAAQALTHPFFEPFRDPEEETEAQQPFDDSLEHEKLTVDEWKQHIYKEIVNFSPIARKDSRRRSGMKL

Compound `O=C1c2ccc(Nc3ccc(F)cc3F)cc2CCc2ccc(OC[C@H](O)CO)cc21` [Skepinone-L] has an Activity [1] of 85%, an Activity [2] of 74% and an Activity [3] of 89%. The Activity [4] was 100%, the Activity [5] was 100% and the Activity [6] was 111%. The Activity [7] was 90%, the Activity [8] was 83% and the Activity [9] was 98%. It also gave an Activity [10] of 85%, an Activity [11] of 89% and an Activity [12] of 102%. For the same compound, the Activity [13] was 92%, the Activity [14] was 100% and the Activity [15] was 100%. The Activity [16] was 33%, the Activity [17] was 97% and the Activity [18] was 100%.
